Reference: the supplement of paper PMC10307832

Key:
Assay in all cases: relative viability (nuclei count vs DMSO), 5 days (fraction); higher = more cells survive
[1] = tested on: 201T
In short: (§1)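 Relative viability divides the nuclei count in treated wells by that in vehicle wells. Lung cancer cell lines were seeded in 1536-well plates, dosed by pin tool the next day, and fixed and stained after 5 days in one step with final 0.05% Triton X-100, 1% formaldehyde and 1 ug/ml Hoechst. Dosing was a single drug or a fixed anchor-drug dose plus five library-drug doses (not always all listed) in √10 steps, and values are medians of duplicate plates imaged at 4×.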

[2] = tested on: ABC-1
In short: as §1

[3] = tested on: CAL-12T
In short: as §1

[4] = tested on: COR-L23
In short: as §1

[5] = tested on: HCC-44
In short: as §1

[6] = tested on: HOP-62
In short: as §1

[7] = tested on: LC-2-ad
In short: as §1

[8] = tested on: LCLC-103H
In short: as §1

[9] = tested on: NCI-H1355
In short: as §1

[10] = tested on: NCI-H1651
In short: as §1

[11] = tested on: NCI-H1666
In short: as §1

[12] = tested on: NCI-H1993
In short: as §1

[13] = tested on: NCI-H2085
In short: as §1

[14] = tested on: NCI-H2228
In short: as §1

[15] = tested on: NCI-H2347
In short: as §1

[16] = tested on: NCI-H23
In short: as §1

[17] = tested on: NCI-H322M
In short: as §1

[18] = tested on: NCI-H520
In short: as §1

[19] = tested on: NCI-H647
In short: as §1

[20] = tested on: NCI-H661
In short: as §1

[21] = tested on: NCI-H838
In short: as §1

[22] = tested on: NCI-H1395
In short: as §1

## Cc1cnc(-c2cnc(NCCNc3ccc(C#N)cn3)nc2-c2ccc(Cl)cc2Cl)[nH]1 + CC(C)C[C@H](NC(=O)[C@H](Cc1ccccc1)NC(=O)c1cnccn1)B(O)O [Bortezomib] (partner 0.002 µM)
[1]; first compound 0.08 µM
  relative viability: 1.12
[1]; first compound 0.253 µM
  relative viability: 0.973
[1]; first compound 0.8 µM
  relative viability: 1.14
[1]; first compound 2.53 µM
  relative viability: 1.1
[2]; first compound 0.08 µM
  relative viability: 0.343
[2]; first compound 0.253 µM
  relative viability: 0.257
[2]; first compound 0.8 µM
  relative viability: 0.347
[2]; first compound 2.53 µM
  relative viability: 0.252
[3]; first compound 0.253 µM
  relative viability: 0.902
[3]; first compound 2.53 µM
  relative viability: 0.975
[4]; first compound 0.08 µM
  relative viability: 1.04
[4]; first compound 0.253 µM
  relative viability: 0.997
[4]; first compound 0.8 µM
  relative viability: 1.14
[4]; first compound 2.53 µM
  relative viability: 0.943
[5]; first compound 0.08 µM
  relative viability: 0.851
[5]; first compound 0.253 µM
  relative viability: 0.855
[5]; first compound 0.8 µM
  relative viability: 0.91
[5]; first compound 2.53 µM
  relative viability: 0.932
[6]; first compound 0.08 µM
  relative viability: 1.18
[6]; first compound 0.253 µM
  relative viability: 0.772
[6]; first compound 0.8 µM
  relative viability: 0.875
[6]; first compound 2.53 µM
  relative viability: 0.907
[7]; first compound 0.08 µM
  relative viability: 1.19
[7]; first compound 0.8 µM
  relative viability: 1.04
[7]; first compound 2.53 µM
  relative viability: 0.855
[8]; first compound 0.08 µM
  relative viability: 1.08
[8]; first compound 0.253 µM
  relative viability: 1.04
[8]; first compound 0.8 µM
  relative viability: 0.983
[8]; first compound 2.53 µM
  relative viability: 0.912
[9]; first compound 0.08 µM
  relative viability: 1.29
[9]; first compound 0.253 µM
  relative viability: 0.961
[9]; first compound 0.8 µM
  relative viability: 1.04
[9]; first compound 2.53 µM
  relative viability: 1.15
[10]; first compound 0.08 µM
  relative viability: 0.965
[10]; first compound 0.253 µM
  relative viability: 0.883
[10]; first compound 0.8 µM
  relative viability: 0.937
[10]; first compound 2.53 µM
  relative viability: 0.92
[11]; first compound 0.08 µM
  relative viability: 0.824
[11]; first compound 0.253 µM
  relative viability: 0.857
[11]; first compound 0.8 µM
  relative viability: 0.764
[11]; first compound 2.53 µM
  relative viability: 0.886
[12]; first compound 0.08 µM
  relative viability: 1.23
[12]; first compound 0.253 µM
  relative viability: 1.07
[12]; first compound 0.8 µM
  relative viability: 1.1
[12]; first compound 2.53 µM
  relative viability: 1.26
[13]; first compound 0.08 µM
  relative viability: 1.12
[13]; first compound 0.253 µM
  relative viability: 1.17
[13]; first compound 0.8 µM
  relative viability: 0.957
[13]; first compound 2.53 µM
  relative viability: 1.02
[14]; first compound 0.08 µM
  relative viability: 1.04
[14]; first compound 0.253 µM
  relative viability: 0.879
[14]; first compound 0.8 µM
  relative viability: 0.986
[14]; first compound 2.53 µM
  relative viability: 0.912
[15]; first compound 0.08 µM
  relative viability: 0.812
[15]; first compound 0.253 µM
  relative viability: 0.914
[15]; first compound 0.8 µM
  relative viability: 1.16
[15]; first compound 2.53 µM
  relative viability: 1.13
[16]; first compound 0.08 µM
  relative viability: 1.13
[16]; first compound 0.253 µM
  relative viability: 0.846
[16]; first compound 0.8 µM
  relative viability: 1.16
[16]; first compound 2.53 µM
  relative viability: 1.13
[17]; first compound 0.08 µM
  relative viability: 1.13
[17]; first compound 0.253 µM
  relative viability: 1.1
[17]; first compound 0.8 µM
  relative viability: 1.22
[17]; first compound 2.53 µM
  relative viability: 1.31
[18]; first compound 0.08 µM
  relative viability: 0.72
[18]; first compound 0.253 µM
  relative viability: 0.551
[18]; first compound 0.8 µM
  relative viability: 0.473
[18]; first compound 2.53 µM
  relative viability: 0.523
[19]; first compound 0.08 µM
  relative viability: 0.943
[19]; first compound 0.253 µM
  relative viability: 0.836
[19]; first compound 0.8 µM
  relative viability: 1.05
[19]; first compound 2.53 µM
  relative viability: 0.994
[20]; first compound 0.08 µM
  relative viability: 0.951
[20]; first compound 0.253 µM
  relative viability: 0.789
[20]; first compound 0.8 µM
  relative viability: 0.836
[20]; first compound 2.53 µM
  relative viability: 0.719
[21]; first compound 0.08 µM
  relative viability: 0.853
[21]; first compound 0.253 µM
  relative viability: 0.757
[21]; first compound 0.8 µM
  relative viability: 0.889
[21]; first compound 2.53 µM
  relative viability: 0.99

## Cc1cnc(-c2cnc(NCCNc3ccc(C#N)cn3)nc2-c2ccc(Cl)cc2Cl)[nH]1 + C[C@]1(O)C[C@@H](c2nc(-c3ccc4ccc(-c5ccccc5)nc4c3)c3c(N)nccn32)C1 [Linsitinib] (partner 1 µM)
[1]; first compound 0.08 µM
  relative viability: 1.03
[1]; first compound 0.253 µM
  relative viability: 1.01
[1]; first compound 0.8 µM
  relative viability: 1.02
[1]; first compound 2.53 µM
  relative viability: 1.01
[2]; first compound 0.08 µM
  relative viability: 1.04
[2]; first compound 0.253 µM
  relative viability: 0.682
[2]; first compound 0.8 µM
  relative viability: 0.839
[2]; first compound 2.53 µM
  relative viability: 0.593
[3]; first compound 0.08 µM
  relative viability: 0.806
[3]; first compound 0.253 µM
  relative viability: 0.787
[3]; first compound 0.8 µM
  relative viability: 0.841
[3]; first compound 2.53 µM
  relative viability: 0.837
[4]; first compound 0.08 µM
  relative viability: 0.814
[4]; first compound 0.253 µM
  relative viability: 0.833
[4]; first compound 0.8 µM
  relative viability: 0.929
[4]; first compound 2.53 µM
  relative viability: 0.962
[5]; first compound 0.08 µM
  relative viability: 0.685
[5]; first compound 0.253 µM
  relative viability: 0.553
[5]; first compound 0.8 µM
  relative viability: 0.681
[5]; first compound 2.53 µM
  relative viability: 0.787
[6]; first compound 0.08 µM
  relative viability: 1.09
[6]; first compound 0.253 µM
  relative viability: 0.972
[6]; first compound 0.8 µM
  relative viability: 0.775
[6]; first compound 2.53 µM
  relative viability: 0.794
[7]; first compound 0.08 µM
  relative viability: 0.905
[7]; first compound 0.8 µM
  relative viability: 0.858
[7]; first compound 2.53 µM
  relative viability: 0.92
[8]; first compound 0.08 µM
  relative viability: 0.968
[8]; first compound 0.253 µM
  relative viability: 1.11
[8]; first compound 0.8 µM
  relative viability: 1.21
[8]; first compound 2.53 µM
  relative viability: 1.09
[9]; first compound 0.08 µM
  relative viability: 0.88
[9]; first compound 0.253 µM
  relative viability: 0.841
[9]; first compound 0.8 µM
  relative viability: 0.765
[9]; first compound 2.53 µM
  relative viability: 0.732
[22]; first compound 0.08 µM
  relative viability: 1.17
[22]; first compound 0.253 µM
  relative viability: 0.972
[22]; first compound 0.8 µM
  relative viability: 1.04
[22]; first compound 2.53 µM
  relative viability: 1
[10]; first compound 0.08 µM
  relative viability: 1.22
[10]; first compound 0.253 µM
  relative viability: 0.893
[10]; first compound 0.8 µM
  relative viability: 1.04
[10]; first compound 2.53 µM
  relative viability: 1.06
[11]; first compound 0.08 µM
  relative viability: 0.926
[11]; first compound 0.253 µM
  relative viability: 0.868
[11]; first compound 0.8 µM
  relative viability: 0.921
[11]; first compound 2.53 µM
  relative viability: 0.976
[12]; first compound 0.08 µM
  relative viability: 0.74
[12]; first compound 0.253 µM
  relative viability: 0.763
[12]; first compound 0.8 µM
  relative viability: 0.701
[12]; first compound 2.53 µM
  relative viability: 0.784
[13]; first compound 0.08 µM
  relative viability: 0.986
[13]; first compound 0.253 µM
  relative viability: 0.932
[13]; first compound 0.8 µM
  relative viability: 0.919
[13]; first compound 2.53 µM
  relative viability: 0.882
[14]; first compound 0.08 µM
  relative viability: 0.678
[14]; first compound 0.253 µM
  relative viability: 0.637
[14]; first compound 0.8 µM
  relative viability: 0.597
[14]; first compound 2.53 µM
  relative viability: 0.481
[15]; first compound 0.08 µM
  relative viability: 1.08
[15]; first compound 0.253 µM
  relative viability: 0.72
[15]; first compound 0.8 µM
  relative viability: 1
[15]; first compound 2.53 µM
  relative viability: 1.02
[16]; first compound 0.08 µM
  relative viability: 0.674
[16]; first compound 0.253 µM
  relative viability: 0.555
[16]; first compound 0.8 µM
  relative viability: 0.536
[16]; first compound 2.53 µM
  relative viability: 0.691
[17]; first compound 0.08 µM
  relative viability: 0.99
[17]; first compound 0.253 µM
  relative viability: 0.853
[17]; first compound 0.8 µM
  relative viability: 0.874
[17]; first compound 2.53 µM
  relative viability: 0.947
[18]; first compound 0.08 µM
  relative viability: 0.974
[18]; first compound 0.253 µM
  relative viability: 0.985
[18]; first compound 0.8 µM
  relative viability: 0.965
[18]; first compound 2.53 µM
  relative viability: 1.09
[19]; first compound 0.08 µM
  relative viability: 1.17
[19]; first compound 0.253 µM
  relative viability: 0.993
[19]; first compound 0.8 µM
  relative viability: 1.17
[19]; first compound 2.53 µM
  relative viability: 1.03
[20]; first compound 0.08 µM
  relative viability: 0.775
[20]; first compound 0.253 µM
  relative viability: 0.628
[20]; first compound 0.8 µM
  relative viability: 0.448
[20]; first compound 2.53 µM
  relative viability: 0.63
[21]; first compound 0.08 µM
  relative viability: 1.02
[21]; first compound 0.253 µM
  relative viability: 1.02
[21]; first compound 0.8 µM
  relative viability: 1.25
[21]; first compound 2.53 µM
  relative viability: 1.51
